Assay results as given in patent US20240376056A1, “PHENYL ACETAMIDE BASED IL-17A MODULATORS AND USES THEREOF” (DiCE Alpha, Inc., priority 2021, published 2024).
pIC50: −log10 of the molar value. Structures can show the parent of a compound that is named as a salt.

Each molecule was assayed against T1, IL-17A/A (Homo sapiens, UniProt Q16552) (assay: HEK-Blue IL-17A/A inhibition assay (SEAP reporter)). Conditions: HEK-Blue cells (HEK 293 expressing IL-17RA, IL-17RC, Act1); IL-17A/A stimulation; 20 hours; SEAP read at A630; 4-parameter fit.
T1 construct: purchased Genscript Z03228
T1 sequence (Q16552 24-155): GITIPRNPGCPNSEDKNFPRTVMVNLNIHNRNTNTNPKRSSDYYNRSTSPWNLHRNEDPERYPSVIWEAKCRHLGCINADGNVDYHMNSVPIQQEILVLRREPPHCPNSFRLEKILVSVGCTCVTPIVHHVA
Type: cell-based
Description: The HEK-Blue #NC108637 […]. Cells were grown and prepared for assays according to the manufacturer's instructions. This cell line consists of HEK 293 cells that were designed to expressed IL-17R^A, IL-17RC, and the ActI adapter molecule, the combination of which. when stimulated by IL-17A/A activates a NFtcB promoter and drives expression of a recombinant Secreted Alkaline Phosphatase (SEAP) geneprotein. Media from the cells is then added to a development reagent (Quanti-Blue Substrate, Fisher #NC971 1613), and read at A630.
Compounds were titrated in DMSO. with a top final compound concentration of 10 uM, 1 uM, or 0.3 uM, and added to the cells immediately before adding IL-17A/A (Genscript #Z03228). The cells, compound, and IL-17A/A were then incubated for 20 hours before media was removed for SEAP analysis. The resulting inhibition curve was then analyzed using Graphpad Prism 7.0, and IC50 values were determined using a 4-parameter nonlinear fit. DMSO was added to a universal final concentration of 0.1% to optimze background.

Row | pIC50 | SMILES
1 | < 6.00 | CC(C)n1nccc1C(=O)N[C@H](C(=O)Nc1ccc([C@H](C)C(=O)N2C(C(N)=O)CCC2C(F)(F)F)cc1F)C(C1CC1)C1CC1 (single isomer, unassigned) [Compound 148]
2 | < 6.00 | CC(C(=O)NCC(F)(F)F)c1cc(F)c(NC(=O)[C@@H](NC(=O)c2ccnn2C(C)C)C(C2CC2)C2CC2)cc1Nc1ccccn1 (stereo partly drawn) [Compound 254]
3 | > 7.00 | Cc1cc(NC(=O)[C@@H](NC(=O)c2ccnn2C(C)C)C2CCC(F)(F)CC2)c(F)cc1C(C)C(=O)N(C)CC(F)(F)F (stereo partly drawn) [Compound 207]
4 | < 6.00 | CC(C(=O)NCC(F)(F)F)c1cc(F)c(NC(=O)[C@@H](NC(=O)c2ccnn2C(C)C)C(C2CC2)C2CC2)cc1C#N (single isomer, unassigned) [Compound 118]
5 | > 7.00 | CC(C)n1nccc1C(=O)N[C@H](C(=O)Nc1ccc([C@H](C)C(=O)NC(CO)C(F)(F)F)cc1F)C(C1CC1)C1CC1 (single isomer, unassigned) [Compound 29]
6 | 6.00 to 7.00 | CCC(c1ccc(F)cc1)[C@H](NC(=O)c1ccnn1C(C)C)C(=O)Nc1cc(OC)c(C(C)C(=O)NCC(F)(F)F)cc1F (stereo partly drawn) [Compound 175]
7 | > 7.00 | COC(=O)Nc1cc(NC(=O)[C@@H](NC(=O)c2ccnn2C(C)C)C(C2CC2)C2CC2)c(F)cc1C(C)C(=O)NCC(F)(F)F (single isomer, unassigned) [Compound 161]
8 | 6.00 to 7.00 | C[C@H](C(=O)NCC(F)(F)F)c1ccc(NC(=O)[C@@H](NC(=O)c2ccnn2CCn2ccnc2)C(C2CC2)C2CC2)c(F)c1 [Compound 95, -(2-(1H-imidazol-1-yl)ethyl)-N-((S)-1,1-dicyclopropyl-3-((2-fluoro-4-((S)-1-oxo-1-((2,2,2-trifluoroethyl)amino)propan-2-yl)phenyl)amino)-3-oxopropan-2-yl)-1H-pyrazole-5-carboxamide]
9 | 6.00 to 7.00 | CC(CN1CCOCC1)n1nccc1C(=O)N[C@H](C(=O)Nc1ccc([C@H](C)C(=O)NCC(F)(F)F)cc1F)C(C1CC1)C1CC1 (single isomer, unassigned) [Compound 92]
10 | 6.00 to 7.00 | CC(C)n1nccc1C(=O)N[C@H](C(=O)Nc1ccc([C@H](C)C(=O)N2CC(O)CC2C(F)(F)F)cc1F)C(C1CC1)C1CC1 (single isomer, unassigned) [Compound 143]
11 | 6.00 to 7.00 | CC[C@@H](c1ccc(F)cc1)[C@H](NC(=O)c1ccnn1C(C)C)C(=O)Nc1cc(OC)c(C(C)C(=O)NCC(F)(F)F)cc1F (stereo partly drawn) [Compound 177]
12 | 6.00 to 7.00 | CC(C)n1nccc1C(=O)N[C@H](C(=O)Nc1ccc([C@H](C)C(=O)N[C@@H](CO)C2CCC2)cc1F)C(C1CC1)C1CC1 [Compound 156]
13 | < 6.00 | CC(C)n1nccc1C(=O)N[C@H](C(=O)Nc1ccc([C@H](C)C(=O)N2CCC(N)C2)cc1F)C(C1CC1)C1CC1 (stereo partly drawn) [Compound 132, N-((2S)-1-((4-((2S)-1-(3-aminopyrrolidin-1-yl)-1-oxopropan-2-yl)-2-fluorophenyl)amino)-3,3-dicyclopropyl-1-oxopropan-2-yl)-1-isopropyl-1H-pyrazole-5-carboxamide]
14 | > 7.00 | CCn1nccc1C(=O)N[C@H](C(=O)Nc1ccc([C@H](C)C(=O)N(CC2CC2)CC(F)(F)F)cc1F)C1CCCCCC1 [Compound 8, N-((S)-1-cycloheptyl-2-((4-((S)-1-((cyclopropylmethyl)(2,2,2-trifluoroethyl)amino)-1-oxopropan-2-yl)-2-fluorophenyl)amino)-2-oxoethyl)-1-ethyl-1H-pyrazole-5-carboxamide]
15 | 6.00 to 7.00 | CC(C)n1nccc1C(=O)N[C@H](C(=O)Nc1ccc([C@H](C)C(=O)N2CCOCCC2C(F)(F)F)cc1F)C(C1CC1)C1CC1 (stereo partly drawn) [Compound 45, N-((2S)-1,1-dicyclopropyl-3-((2-fluoro-4-((2S)-1-oxo-1-(5-(trifluoromethyl)-1,4-oxazepan-4-yl)propan-2-yl)phenyl)amino)-3-oxopropan-2-yl)-1-isopropyl-1H-pyrazole-5-carboxamide]
16 | 6.00 to 7.00 | CC(C)n1nccc1C(=O)N[C@H](C(=O)Nc1ccc([C@H](C)C(=O)NC(C2CCOC2)C(F)(F)F)cc1F)C(C1CC1)C1CC1 (single isomer, unassigned) [Compound 151]
17 | > 7.00 | CC(C(=O)NCC(F)(F)F)c1cc(F)c(NC(=O)[C@@H](NC(=O)c2ccnn2C(C)C)C(C2CC2)C2CC2)cc1N1CCCC1 (stereo partly drawn) [Compound 160, N-((2S)-1,1-dicyclopropyl-3-((2-fluoro-4-(1-oxo-1-((2,2,2-trifluoroethyl)amino)propan-2-yl)-5-(pyrrolidin-1-yl)phenyl)ammno)-3-oxopropan-2-yl)-1-isopropyl-1H-pyrazole-5-carboxamide]

Row | pIC50 | SMILES
18 | < 6.00 | CCC(C(=O)NCC(F)(F)F)c1ccc(NC(=O)[C@@H](NC(=O)c2ccnn2C(C)C)C(C2CC2)C2CC2)c(F)c1 (single isomer, unassigned) [Compound 150]
19 | > 7.00 | CC(C(=O)NCC(F)(F)F)c1cc(F)c(NC(=O)[C@@H](NC(=O)c2ccnn2C)C(C2CC2)C2CC2)cc1OC(F)(F)F (stereo partly drawn) [Compound 258]
20 | > 7.00 | Cc1cc(NC(=O)C(NC(=O)c2ccnn2C(C)C)C(C2CC2)C2CC2)c(F)cc1C(C)C(=O)N1CC(C)OCC1C(F)(F)F (stereo not drawn) [Compound 184]
21 | 6.00 to 7.00 | CCn1nccc1C(=O)N[C@H](C(=O)Nc1ccc([C@H](C)C(=O)NCC(F)(F)F)cc1F)C(C1CCC1)C1CCC1 [Compound 88, N-((S)-1,1-dicyclobutyl-3-((2-fluoro-4-((S)-1-oxo-1-((2,2,2-trifluoroethyl)amino)propan-2-yl)phenyl)amino)-3-oxopropan-2-yl)-1-ethyl-1H-pyrazole-5-carboxamide]
22 | > 7.00 | CCc1nocc1C(=O)N[C@H](C(=O)Nc1ccc([C@H](C)C(=O)NCC(F)(F)F)cc1F)C(C1CC1)C1CC1 [Compound 84, N-((S)-1,1-dicyclopropyl-3-((2-fluoro-4-((S)-1-oxo-1-((2,2,2-trifluoroethyl)amino)propan-2-yl)phenyl)amino)-3-oxopropan-2-yl)-3-ethylisoxazole-4-carboxamide]
23 | < 6.00 | C[C@H](C(=O)NCC(F)(F)F)c1ccc(NC(=O)[C@@H](NC(=O)c2ccnn2C2CCCNC2)C(C2CC2)C2CC2)c(F)c1 (single isomer, unassigned) [Compound 97]
24 | < 6.00 | CCCNC(=O)Cc1ccc(NC(=O)[C@@H](NC(=O)c2ccnn2CC)C2CCCCCC2)c(F)c1 [Compound 114, (S)-N-(1-cycloheptyl-2-((2-fluoro-4-(2-oxo-2-(propylamino)ethyl)phenyl)amino)-2-oxoethyl)-1-ethyl-1H-pyrazole-5-carboxamide]
25 | 6.00 to 7.00 | CC(C)n1nccc1C(=O)N[C@H](C(=O)Nc1ccc([C@H](C)C(=O)NC(CNC(=O)OC(C)(C)C)C(F)(F)F)cc1F)C(C1CC1)C1CC1 (stereo partly drawn) [Compound 154]
26 | < 6.00 | CCn1nccc1C(=O)N[C@H](C(=O)Nc1ccc([C@H](C)C(=O)N(C)CC(F)(F)F)cc1F)[C@@H]1CCc2ccccc21 [Compound 91, N-((S)-1-((R)-2,3-dihydro-1H-inden-1-yl)-2-((2-fluoro-4-((S)-1-(methyl(2,2,2-trifluoroethyl)amino)-1-oxopropan-2-yl)phenyl)amino)-2-oxoethyl)-1-ethyl-1H-pyrazole-5-carboxamide]
27 | > 7.00 | COCc1cc(NC(=O)[C@@H](NC(=O)c2ccnn2C(C)C)C(C2CC2)C2CC2)c(F)cc1C(C)C(=O)NCC(F)(F)F (single isomer, unassigned) [Compound 124]
28 | < 6.00 | CC(C)n1nccc1C(=O)N[C@H](C(=O)Nc1ccc([C@H](C)C(=O)N2C(C(N)=O)CCC2C(F)(F)F)cc1F)C(C1CC1)C1CC1 (single isomer, unassigned) [Compound 147]
29 | > 7.00 | COc1cc(NC(=O)[C@@H](NC(=O)c2ccnn2C(C)C)C(C2CC2)C2CC2)c(F)cc1C(C)C(=O)NC(CO)C(F)(F)F (single isomer, unassigned) [Compound 180]
30 | 6.00 to 7.00 | CC(C)n1nccc1C(=O)N[C@H](C(=O)Nc1ccc([C@H](C)C(=O)NCC(F)(F)F)cc1F)C1CCC(F)(F)CC1 [Compound 50, N-((S)-1-(4,4-difluorocyclohexyl)-2-((2-fluoro-4-((S)-1-oxo-1-((2,2,2-trifluoroethyl)amino)propan-2-yl)phenyl)amino)-2-oxoethyl)-1-isopropyl-1H-pyrazole-5-carboxamide]
31 | < 6.00 | CCn1nccc1C(=O)N[C@H](C(=O)Nc1ccc(CC(=O)N(C)C2(C(F)(F)F)CC2)cc1F)C1CCCCCC1 [Compound 5, (S)-N-(1-cycloheptyl-2-((2-fluoro-4-(2-(methyl(1-(trifluoromethyl)cyclopropyl)amino)-2-oxoethyl)phenyl)amino)-2-oxoethyl)-1-ethyl-1H-pyrazole-5-carboxamide]
32 | > 7.00 | CC(C(=O)NCC(F)(F)F)c1cc(F)c(NC(=O)[C@@H](NC(=O)c2ccnn2C(C)C)C(C2CC2)C2CC2)cc1OC(F)(F)F (single isomer, unassigned) [Compound 185]
33 | 6.00 to 7.00 | CC(C)n1nccc1C(=O)N[C@H](C(=O)Nc1ccc([C@H](C)C(=O)NC(CN)C(F)(F)F)cc1F)C(C1CC1)C1CC1 (stereo partly drawn) [Compound 157, N-((2S)-1-((4-((2S)-1-((3-amino-1,1,1-trifluoropropan-2-yl)amino)-1-oxopropan-2-yl)-2-fluorophenyl)amino)-3.3-dicyclopropyl-1-oxopropan-2-yl)-1-isopropyl-1H-pyrazole-5-carboxamide hydrochloride]
